pEC50, pIC50: −log10 of the molar value.
Experiments:
[1] = tested on: HIV-1 Ba-L; test: HIV-1 MAGI assay, Ba-L (CCR5 / M-tropic); format: cell-based
Procedure: (§1) Bayesian statistical models were constructed using known CXCR4 and CCR5 active compounds from literature, and these models were used to virtually screen 5 million compounds in the Aldrich Marketplace Select library. The screen yielded 14 compounds of interest that were then tested for their anti-HIV activity for both tropisms in MAGI assay. Two compounds (FIG. 1, compounds 1 and 2) were active against both T and M tropic forms of HIV with IC50 values of ˜20 μM. These initial hits were followed-up by a second round of virtual screening based on similarity and sub-structure searching. Another 24 compounds were purchased from the same database and tested. […] This compound was then subjected to a series of biological evaluations to determine activity profile and confirm mechanism of action.

[2] = tested on: HIV-1 IIIB; test: HIV-1 MAGI assay, IIIB (CXCR4 / T-tropic); format: cell-based
Procedure: as §1

[3] = tested on: MAGI
[4] = tested on: HIV-1 IIIB; test: PBMC anti-HIV-1 assay, IIIB (CXCR4); format: cell-based; settings: Human immunodeficiency virus 1, IIIB, read-out: PBMC - HIV-1HIB (CXCR4) IC50
[5] = tested on: HIV-1 Ba-L; test: PBMC anti-HIV-1 assay, Ba-L (CCR5); format: cell-based; settings: Human immunodeficiency virus 1, BAL
[6] = target: HIV-1 reverse transcriptase (Human immunodeficiency virus type 1 group M subtype B, UniProt P03366); test: biochemical; format: biochemical
[7] = MAGI toxicity; settings: human, MAGI cells
[8] = tested on: VSV-G pseudovirus; test: microbe, parasite or virus in culture; format: cell-based
[9] = tested on: wild type virus; test: organism not typed; format: cell-based; settings: read-out: Multi-cycle EC50 (WT)
[10] = tested on: HIV-2 strain that utilized CXCR4 for entry; test: PBMC HIV-2 inhibition assay; format: cell-based
Description: Compounds 4 inhibited this HIV-2 strain in PBMC cells in support of the CXCR4-based viral entry inhibition mechanism.

[11] = in vitro; format: cell-based; settings: human
[12] = target: T1, CCR5 (Homo sapiens, UniProt P51681); test: 125I-MIP-1β displacement radio-ligand competition assay; format: binding
T1 construct: expressed in transfected cells; host or cells: HeLa-C14

[13] = PBMC toxicity; format: cell-based; settings: read-out: PBMC - Toxicity TC50
[14] = target: T1, CCR5; test: HeLa-C14:JRFL CD4-dependent cell-cell fusion assay; format: cell-based
Description: Cell-cell fusion assays measure specifically co-receptor mediated inhibition of gp120-induced fusion in the absence of other viral machinery, and these assays were used to explore the CCR5- and CXCR4-specific antiviral activity. A cell-cell fusion assay was constructed to simulate HIV-1 entry in the absence of other viral machinery. The assay measured fusion of effector cells expressing the JRFL envelope (CCR5-tropic/CD4 dependent) with HeLa-C14 target cells (expressing CD4, CCR5, and CXCR4) using a luciferase readout (FIG. 5A).

T1 sequence (P51681 whole entry): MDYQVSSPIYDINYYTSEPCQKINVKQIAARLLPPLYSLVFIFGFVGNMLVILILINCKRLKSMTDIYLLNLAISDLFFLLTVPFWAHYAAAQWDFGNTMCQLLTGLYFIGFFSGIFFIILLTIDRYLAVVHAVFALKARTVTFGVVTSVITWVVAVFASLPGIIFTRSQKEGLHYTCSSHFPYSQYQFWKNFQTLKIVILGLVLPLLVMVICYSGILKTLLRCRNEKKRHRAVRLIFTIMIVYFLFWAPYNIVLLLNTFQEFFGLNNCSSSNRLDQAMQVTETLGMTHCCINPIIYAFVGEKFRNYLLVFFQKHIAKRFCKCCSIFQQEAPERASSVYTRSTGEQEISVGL

Work on “4-((4-(4-benzyl-5-methyl-1H-pyrazol-3-yl)piperidin-1-yl)methyl)-3-chloropyridine” yielded a pIC50 ([1]; table of synthesized compounds, read-out: R5-IC50) of 5.38, a pIC50 ([2]; table of synthesized compounds, read-out: X4-IC50) of 5.51 and a CC50 [3] of 164 µM.
For `c1ccc(Cc2cn[nH]c2C2CCN(Cc3ccncc3)CC2)cc1` [Compound 4, 4-((4-(4-benzyl-1H-pyrazol-3-yl)piperidin-1-yl)methyl)pyridine], the pIC50 [4] was 5.64, the pIC50 [5] was 5.64 and the “inhibition of isolated HIV-1 reverse transcriptase” value ([6]; in words) was “inhibited”. For the same compound, the pIC50 ([6]; read-out: Isolated HIV-RT Inhibition IC50) was 5.05, the CC50 ([7]; MAGI -Toxicity TC50) was greater than 300 µM and the CC50 ([7]; TC50, table of synthesized compounds) was greater than 100 µM. For the same compound, the pEC50 ([8]; Pseudovirus) was 5.89, the “inhibition of VSV-G pseudovirus” value ([8]; in words) was “inhibited” and the pEC50 [9] was 6.05. For the same compound, the pIC50 ([1]; Ba-L, M-tropic, read-out: HIV-1 MAGI IC50 Ba-L) was 4.77, the pIC50 ([1]; Human immunodeficiency virus 1, BAL, MAGI, value stated for both tropisms, read-out: IC50 against M tropic HIV in MAGI assay) was 5.42 to 6.10 and the pIC50 ([1]; Human immunodeficiency virus 1, BAL, Table 3, read-out: MAGI Assay IC50 CCR5) was 5.42. It also gave a pIC50 ([1]; Human immunodeficiency virus 1, BAL, read-out: MAGI - HIV-1Ba-L (CCR5) IC50) of 5.42, a pIC50 ([1]; Human immunodeficiency virus 1, BAL, table of synthesized compounds, read-out: R5-IC50) of 5.43 and a pIC50 ([2]; Human immunodeficiency virus 1, IIIB, MAGI, Table 3, read-out: MAGI Assay IC50 CXCR4) of 6.10. The pIC50 ([2]; Human immunodeficiency virus 1, IIIB, MAGI, read-out: MAGI - HIV-1HIB (CXCR4) IC50) was 6.10, the pIC50 ([2]; Human immunodeficiency virus 1, IIIB, MAGI, table of synthesized compounds, read-out: X4-IC50) was 6.11 and the pIC50 ([2]; Human immunodeficiency virus 1, IIIB, MAGI, value stated for both tropisms, read-out: IC50 against T tropic HIV in MAGI assay) was 5.42 to 6.10. For the same compound, the pIC50 ([2]; IIIB, T-tropic, read-out: HIV-1 MAGI IC50 IIIB) was 4.60, the pIC50 ([10]; Human immunodeficiency virus 2, PBMC) was 4.51 and the “inhibition of HIV-2 strain in PBMC cells” value ([10]; in words) was “inhibited”. For the same compound, the CC50 [11] was greater than 200 µM, the “125I-MIP-1β Displacement” value ([12]; at 100 μM) was 38% at 100 μM/ and the “125I-MIP-1β Displacement” value ([12]; at 1 mM) was 88% at 1 mM. The “displacement of 125I-MIP1β chemokine ligand from the receptor” value ([12]; in words) was “displaced”, the CC50 [13] was greater than 100 µM and the pIC50 [14] was 4.44. The “inhibition of JRFL envelope / HeLa-C14 cell-cell fusion” value ([14]; luciferase readout, in words) was “inhibited fusion”.

Reference: patent US10450293B2, “Chemokine CXCR4 and CCR5 receptor modulators and uses related thereto” (Emory University, priority 2014, dated 2019)
